Data: patent US20060275826A1, “Artificial antibody comprising complementary peptide” (priority 2003, published 2006)
No end group written: not given here.

Tests used:
[1] = molecular target: T1, HIV transcriptase (HIV-RT) (Human immunodeficiency virus type 1 group M subtype B, UniProt P04585); assay: Sandwich ELISA detecting HIV-RT with complementary peptides as artificial antibody peptides; format: binding; settings: wells coated with ESLA 2340, detection with biotin-labeled TLMA 2993 and peroxidase-labeled avidin
T1 construct: reverse transcriptase (abbreviated as RT hereinafter)
Procedure: Wells of a 96 well plate were coated with ESLA 2340 in advance. After adding a diluted solution of HIV-RT in each well and allowing the plate to stand overnight at 4° C., the plate was washed and biotin-labeled TLMA 2993 was added to each well. The plate was allowed to stand for 1 hour at room temperature. After washing the plate again, peroxidase-labeled avidin was added to allow it to react at room temperature for 1 hour. After washing the plate to remove unreacted avidin, a color development reaction was performed by a conventional method at room temperature by adding a color developing reagent of peroxidase.

[2] = molecular target: T2, reverse transcriptase (RT) of human immunodeficiency virus-1 (HIV-1) (Human immunodeficiency virus type 1 group M subtype B, UniProt P04585); assay: HIV-RT activity assay (primer tRNALys3 elongation on viral genome RNA, autoradiography); format: biochemical; settings: for IC50: 50% suppression concentrations against RT, 50 ng HIV-RT, 37° C., 15 minutes; for suppressing activity against RT activity: result in words
T2 construct: reverse transcriptase (abbreviated as RT hereinafter)
From the text: Complementary peptides against peptides at each site of reverse transcriptase (abbreviated as RT hereinafter) of a pathogenic virus of AIDS, human immunodeficiency virus-1 (HIV-1), were automatically designed using an analysis program (MIMETIC), and the peptides shown in Table 1 were designed. The designed peptides were synthesized by a conventional solid phase method by allowing 9-fluorenylmethoxycarbonyl (Fmoc) amino acids to sequentially bind using a peptide synthesizer (trade name: AMS 422 Multiple Peptide Synthesizer, manufactured by ABiMED Co.). The synthesized peptide was released from the solid support by a conventional method, and protective groups were removed. The peptide obtained was recovered by ether precipitation, and was purified with reversed phase HPLC after removing ether by drying. A culture supernatant of PLB cells (established human lymphocyte strain) infected with HIV-1 was placed on a top layer of layered 65% and 15% sucrose solutions in a ultracentrifuge tube, and HIV-1 particles were retrieved by ultracentrifugation for 1 hour at 26,500 rpm. Virus RNA was extracted by a guanidine isothiocyanate method (Chomezynski, P. and Sacchi, N., RNA Isolation from Cultured cells, Analytical Biochemistry, 162: 156-159, 1987), and the extract was used by dissolving in 5 mM Tris buffer (pH 7.5). The amount of the whole length virus genome RNA contained in the total RNA sample was quantified according to a conventional ribonuclease protection method (Kaye, J. F. et al., Cis-acting Sequences Involved in Human Immunodeficiency Virus Type 1 RNA Packaging, J. Virol, 69: 6588-6592, 1995; and Huang, Y. et al., The Role of Nucleocapsid and U5 stem/A rich Loop Sequences in tRNA (3Lys) Genomic Placement and Initiation of Reverse Transcription in Human Immunodeficiency Virus Type 1, J. Virol., 72: 3907-3915, 1997). The virus genome binds to tRNA^Lys3 in the cell, and can be used for measuring RT activity. The RNA genome of about 5×10^7 molecules was allowed to react with 50 ng of HIV-RT, 10 units of […] and dNTP's (deoxynucleic acid) at 37° C. for 15 minutes in 20 μl of RTbuffer (50 mMTris-HCl, pH 7.5, 60 mM KCl, 3 mM MgCl2 and 10 mM DTT). The sequence at the tip of the molecule comprises six bases of CTGCTA. One base was added to tRNA^Lys3 using ^32P-dCTP with a radioactivity of 5 μci, and 6 bases were further added by allowing 0.2 mM of dCTP, 0.2 mM of dTTP, 5 μCi of ^32p-dGTP and 0.05 mM of ddATP to react. The elongated primer was retrieved by ethanol precipitation, and was analyzed by auto-radiography through electrophoresis on 6% polyacrylamide gel containing 7 M urea.

ProCPR [3] = molecular target: T3, ProCPR (Homo sapiens, UniProt Q96IY4); assay: Surface plasmon resonance analyzer (Biacore) reactivity to ProCPR; format: binding
T3 sequence (Q96IY4 23-423 limits assumed): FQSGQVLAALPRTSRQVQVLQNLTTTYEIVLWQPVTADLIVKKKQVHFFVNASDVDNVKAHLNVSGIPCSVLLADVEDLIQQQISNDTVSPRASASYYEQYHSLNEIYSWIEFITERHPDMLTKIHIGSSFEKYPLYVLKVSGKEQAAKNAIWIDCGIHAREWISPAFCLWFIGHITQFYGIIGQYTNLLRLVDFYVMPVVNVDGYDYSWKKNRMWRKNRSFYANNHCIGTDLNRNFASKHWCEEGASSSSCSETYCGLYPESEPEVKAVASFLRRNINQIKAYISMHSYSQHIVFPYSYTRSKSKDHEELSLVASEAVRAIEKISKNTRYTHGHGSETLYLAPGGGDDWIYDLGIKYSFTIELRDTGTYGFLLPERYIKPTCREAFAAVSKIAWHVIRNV

[4] = molecular target: T4, Pro-carboxypeptidase R (ProCPR) (Homo sapiens, UniProt Q96IY4); assay: Activation of ProCPR to CPR by thrombin-thrombomodulin (T/TM) complex, hippuryl-L-arginine substrate; format: biochemical; settings: 1 μM of peptide
T4 sequence (Q96IY4 23-423 limits assumed): T3 sequence (Q96IY4 23-423 limits assumed)
From the text: Pro-carboxypeptidase R (abbreviated as ProCPR hereinafter) is converted into active carboxypeptidase R (abbreviated as CPR hereinafter) by trimming a sequence from an amino terminal to arginine 92 with a trypsin-like enzyme such as thrombin and plasmin. A complementary peptide corresponding to the amino acid sequence comprising 30, 24, 20, 15 or 11 amino acids from amino acid 87 counted from the amino terminal of the ProCPR was automatically designed using the analysis program MIMETIC of the invention, and the peptides shown in Table 2 were designed. An action on the activation reaction of ProCPR by a thrombin-thrombomodulin complex (abbreviated as T/TM complex hereinafter) was analyzed with respect to the peptides (the peptides in notes (1) and (2) in Table 2) comprising 20 and 15 amino acids of the complementary peptides described above. The designed peptides were synthesized by a conventional solid state method by which 9-fluorenylmethoxycarbonyl (Fmoc) amino acids are sequentially linked using a peptide synthesizer (trade name: AMS 422 Multiple Peptide Synthesizer, manufactured by ABiMED Co.) The synthesized peptide was released by a conventional method, and protecting groups were removed. The peptide obtained was retrieved by ether precipitation, and was purified by reversed phase HPLC after removing ether by drying. The purified peptides comprising 20 and 15 amino acids were allowed to react with ProCPR for 10 minutes at room temperature, followed by allowing the T/TM complex to react. After a reaction for 45 minutes at 37° C. by adding hippuril-L-arginine which is substrate of CPR, free hippuric acid was measured according to a reported method (Komura, H., et al., Effect of Anticoagulants in Colorimetric Assay for Basic Carboxypeptidase, Microbiol. Immunol., 46: 115-117, 2002). When 20-mer peptide and 15-mer peptide were added, activation of ProCPR to CPR with the T/TM complex was suppressed by adding 1 μM of respective peptides. […]

ProCPR [5] = molecular target: T5, ProCPR (Homo sapiens, UniProt Q96IY4); assay: Plate ELISA: VGG-coated plate, human plasma containing ProCPR, biotin-labeled 10G1 antibody; format: binding; settings: plate coated with VGG, diluted human plasma
T5 construct: diluted human plasma containing ProCPR; from tissue; host or cells: human plasma
T5 sequence (Q96IY4 115-423): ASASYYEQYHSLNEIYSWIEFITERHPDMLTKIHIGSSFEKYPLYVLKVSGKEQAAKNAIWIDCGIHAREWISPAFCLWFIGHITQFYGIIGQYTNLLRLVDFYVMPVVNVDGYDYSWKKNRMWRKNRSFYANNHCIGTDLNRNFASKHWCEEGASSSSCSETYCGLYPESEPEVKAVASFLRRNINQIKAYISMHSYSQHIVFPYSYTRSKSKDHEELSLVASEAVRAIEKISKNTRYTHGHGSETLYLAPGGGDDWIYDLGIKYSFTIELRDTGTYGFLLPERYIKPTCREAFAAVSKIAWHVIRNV
Procedure: After coating the plate with VGG and washing the plate, diluted human plasma containing ProCPR was added to the plate and was allowed to react for 1 hour at room temperature. After removing excess plasma by washing the plate, 10G1 as a […] was added followed by allowing it to react for 1 hour at room temperature. Excess 10G1 antibody was removed by washing the plate, and remaining 10G1 antibody was allowed to react by adding peroxidase-labeled avidin. After removing unreacted avidin by washing, the reaction solution was made to develop a color by a conventional method depending on the strength of the enzyme reaction of peroxidase by adding a peroxidase color development reagent, and the intensity of the color was measured with a plate reader.

Row | Sequence | color development depending on concentration of HIV-RT (sandwich ELISA) [1] | IC50 [2] [µM] | suppressing activity against RT activity [2] | suppression of activation of ProCPR to CPR with the T/TM complex [4] | also measured
1 | ESLALYKSLQQSEMLLELEL [ESLA2340] | A color was developed depending on the concentration of HIV-RT | 17 | confirmed to suppress the activity of transcriptase |  | 
2 | PSTWPTFLKFQLK [PSTW1594, PSTWPTFLKFQLK] |  | 15 |  |  | 
3 | TLMALELKGKLLLAGLAPSAFLPLSFPEL [TLMA2993] | A color was developed depending on the concentration of HIV-RT | 15 | confirmed to suppress the activity of transcriptase |  | 
4 | VGGRRTRARRVLLLVLTETH [complementary (mimetic) peptide to ProCPR positions 87-106] |  |  |  | confirmed to suppress activation of ProCPR | reactivity to ProCPR by surface plasmon resonance (ProCPR [3]): confirmed to be reactive to ProCPR; suppression of activation of ProCPR to CPR with the T/TM complex ([4]; listed as 20-mer peptide): suppressed; color development depending on concentration of plasma containing ProCPR (ELISA) (ProCPR [5]): color was developed depending on the concentration of the plasma
5 | VSRGRRRDRRILMII [15-mer peptide, complementary (mimetic) peptide to ProCPR positions 87-101] |  |  |  | suppressed | 
